Reference: paper PMC6095690, “Coalescing beneficial host and deleterious antiparasitic actions as an antischistosomal strategy” (eLife, 2018)
Read-outs that look alike come from different tables or passages of the source.

What was measured:
[1] = system: adult S. mansoni parasites; assay: adult worm movement assay ex vivo; parameters: species or system Schistosoma mansoni; details: for IC50: read-out: IC50 for inhibition of 5-HT evoked movement, 5-HT 200 µM
[2] = biological target: T1, Sm.5HTRL (Schistosoma mansoni, UniProt A0A173FEI8)
T1 sequence (A0A173FEI8 1-547): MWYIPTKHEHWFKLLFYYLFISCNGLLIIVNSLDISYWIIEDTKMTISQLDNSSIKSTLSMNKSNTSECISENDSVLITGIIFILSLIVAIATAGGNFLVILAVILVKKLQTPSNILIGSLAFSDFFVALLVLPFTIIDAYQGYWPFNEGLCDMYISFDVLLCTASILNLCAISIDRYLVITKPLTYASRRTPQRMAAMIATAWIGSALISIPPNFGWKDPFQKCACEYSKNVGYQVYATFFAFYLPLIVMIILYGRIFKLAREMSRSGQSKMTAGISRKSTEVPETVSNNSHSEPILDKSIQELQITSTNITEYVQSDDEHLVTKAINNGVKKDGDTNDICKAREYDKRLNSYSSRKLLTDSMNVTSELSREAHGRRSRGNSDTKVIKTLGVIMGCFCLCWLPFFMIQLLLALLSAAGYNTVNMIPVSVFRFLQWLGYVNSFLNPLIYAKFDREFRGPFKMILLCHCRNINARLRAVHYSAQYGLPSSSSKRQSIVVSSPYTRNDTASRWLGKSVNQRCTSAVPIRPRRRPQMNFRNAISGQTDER

[3] = biological target: T1, Sm.5HTRL; assay: cell-based; details: for fold induction at 10 µM: HEK293, read-out: Sm.5HTRL agonism (fold change luminescence)
[4] = system: S. mansoni (mature infection in Swiss Webster mice); assay: hepatic shift assay in infected mice; details: intraperitoneal, sacrificed three hours later; dose not given
[5] = system: parental HEK293 cell line expressing the GloSensor 22F cAMP sensor and lacking Sm.5HTRL; assay: counter-screen of agonist hits: basal cAMP luminescence in parental reporter line; assay type: cell-based
[6] = Schistosoma mansoni, ex vivo, ± 95% confidence interval
[7] = agonist hit counter screen, cells lacking Sm.5HTRL
[8] = primary screen, compound 10 µM then 5-HT 1 µM, 384 well, single replicate

**Q.** With `CCN(CC)C(=O)[C@@H]1C=C2c3cccc4[nH]c(Br)c(c34)C[C@H]2N(C)C1` [BOL-148, 2-Bromo-LSD] as the molecule, how does the IC50 [1, 6] read?
**A.** 28.8 ± 23.1 nM

**Q.** What about the “potency relative to bromocriptine” value ([1]; inhibition of 5-HT evoked movement) of the same molecule?
**A.** ~ 10 fold

**Q.** What about the “type of activity at schistosome 5-HTRs” value [2] of the same molecule?
**A.** antagonists

**Q.** What about the IC50 [3] of the same molecule?
**A.** 100 ± 20 nM

**Q.** And the “percentage of worms in the liver” value [4]?
**A.** 5.2 ± 2.3%

**Q.** Which EC50 ([1]; Schistosoma mansoni, ex vivo, ± 95% confidence interval, read-out: EC50 for stimulation of adult schistosome movement) does the source give for `CCN(CC)C(=O)[C@@H]1C=C2c3cccc4[nH]cc(c34)C[C@H]2N(C)C1` [LSD, reference compound] here?
**A.** 1400 ± 500 nM

**Q.** And the “type of activity at schistosome 5-HTRs” value [2]?
**A.** partial agonist

**Q.** Which results are given for `COc1cc(C(=O)NCCOc2ccccc2C)cc(OC)c1OC` [ST005872]?
**A.** (-)Sm.5HTRL fold change [5, 7]: 0.7305 fold change; (+) Sm.5HTRL fold change ([2]; agonist hit validation): 10.4008 fold change

**Q.** Which results are given for `Nc1ncnc2c1ncn2[C@@H]1O[C@H](CO)[C@@H](O)[C@H]1O` [ST009496]?
**A.** (-)Sm.5HTRL fold change [5, 7]: 3.9 fold change; (+) Sm.5HTRL fold change ([2]; agonist hit validation): 24.237 fold change

**Q.** With `CNCCc1c[nH]c2ccc(O)cc12.O=C(O)C(=O)O` [ST055634] as the molecule, how does the “(-)Sm.5HTRL fold change” value [5, 7] read?
**A.** 1.3 fold change

**Q.** What about the “(+) Sm.5HTRL fold change” value ([2]; hek293 cells) of the same molecule?
**A.** 165.214 fold change

**Q.** For `CN1C[C@H](C(=O)N[C@]2(C)O[C@@]3(O)[C@@H]4CCCN4C(=O)[C@H](Cc4ccccc4)N3C2=O)C[C@@H]2c3cccc4[nH]cc(c34)C[C@H]21.CS(=O)(=O)O` [ST056346], which “(-)Sm.5HTRL fold change” value [5, 7] is on record?
**A.** 1.4 fold change

**Q.** What about the “(+) Sm.5HTRL fold change” value [2] of the same molecule?
**A.** 94.3413 fold change

**Q.** Which “(-)Sm.5HTRL fold change” value [5] does the source give for `Br.Oc1ccc(CC2NCCc3cc(O)c(O)cc32)cc1O` (stereo not shown) [ST056944] here?
**A.** 56.3 fold change

**Q.** And the “(+) Sm.5HTRL fold change” value ([2]; hek293 cells)?
**A.** 28.3016 fold change

**Q.** What does the source list for `Nc1ncnc2c1ncn2[C@@H]1O[C@H](COP(=O)(O)OP(=O)(O)O)[C@@H](O)[C@H]1O` [ST057097]?
**A.** (-)Sm.5HTRL fold change [5, 7]: 1.0 fold change; (+) Sm.5HTRL fold change ([2]; agonist hit validation): 11.9433 fold change

**Q.** What does the source list for `C[C@@H](CO)NC(=O)[C@@H]1C=C2c3cccc4[nH]cc(c34)C[C@H]2N(C)C1` [ST057158]?
**A.** (-)Sm.5HTRL fold change [5, 7]: 1.1 fold change; (+) Sm.5HTRL fold change [2]: 15.5169 fold change

**Q.** `CC1=CC(=O)c2c(O)cccc2C1=O` [ST069355] was tested. Which “(+) Sm.5HTR 5-HT response (% of DMSO)” value [2] did it give?
**A.** 0.03935 % of DMSO

**Q.** For `CNC[C@H](O)c1ccc(O)c(O)c1` [ST069368], which “(-)Sm.5HTRL fold change” value [5, 7] is on record?
**A.** 94.1 fold change

**Q.** What about the “(+) Sm.5HTRL fold change” value ([2]; agonist hit validation) of the same molecule?
**A.** 60.6229 fold change

**Q.** How did the “(-)Sm.5HTRL fold change” value [5, 7] turn out when `NCCc1c[nH]c2cccc(OC(=O)c3ccc(C(=O)O)cc3)c12` [ST070282] was run?
**A.** 1.366 fold change

**Q.** And the “(+) Sm.5HTRL fold change” value ([2]; hek293 cells)?
**A.** 12.6864 fold change

**Q.** With `Cc1ccc2[nH]c(CCN)cc2c1.Cl` [ST070930] as the molecule, how does the “(-)Sm.5HTRL fold change” value [5, 7] read?
**A.** 1.1 fold change

**Q.** What about the “(+) Sm.5HTRL fold change” value ([2]; agonist hit validation) of the same molecule?
**A.** 17.0489 fold change

**Q.** Which “(-)Sm.5HTRL fold change” value [5] does the source give for `CN1CC(C(=O)NC2(C)OC3(O)C4CCCN4C(=O)C(Cc4ccccc4)N3C2=O)C=C2c3cccc4[nH]cc(c34)CC21.O=C(O)C(O)C(O)C(=O)O` (stereo not shown) [ST072185] here?
**A.** 1.0 fold change

**Q.** And the “(+) Sm.5HTRL fold change” value [2]?
**A.** 29.8904 fold change

**Q.** Which “(-)Sm.5HTRL fold change” value [5, 7] does the source give for `CC(C)NCC(O)c1ccc(O)c(O)c1` (stereo not shown) [ST077771] here?
**A.** 15.0437 fold change

**Q.** And the “(+) Sm.5HTRL fold change” value ([2]; agonist hit validation)?
**A.** 12.8429 fold change

**Q.** How did the “(-)Sm.5HTRL fold change” value [5, 7] turn out when `Nc1nc(Cl)nc2c1ncn2C1OC(CO)C(O)C1O` (stereo not shown) [ST088476] was run?
**A.** 3.8 fold change

**Q.** What about the “(+) Sm.5HTRL fold change” value ([2]; agonist hit validation) of the same molecule?
**A.** 23.2211 fold change

**Q.** With `Cl.NCCc1c[nH]c2ccc(Br)cc12` [ST093597] as the molecule, how does the “(-)Sm.5HTRL fold change” value [5] read?
**A.** 1.1795 fold change

**Q.** What about the “(+) Sm.5HTRL fold change” value ([2]; hek293 cells) of the same molecule?
**A.** 15.2823 fold change

**Q.** What does the source list for `CNCC(O)c1ccc(O)cc1` (stereo not shown) [ST095769]?
**A.** (-)Sm.5HTRL fold change [5, 7]: 2.535 fold change; (+) Sm.5HTRL fold change ([2]; agonist hit validation): 11.737 fold change

**Q.** How did the “(-)Sm.5HTRL fold change” value [5, 7] turn out when `C=C[C@@]1(C)CC(=O)[C@@]2(O)[C@](C)(O1)[C@@H](OC(C)=O)[C@@H](O)C1C(C)(C)CC[C@H](O)[C@@]12C` (stereo partly shown) [ST095786] was run?
**A.** 121.8 fold change

**Q.** And the “(+) Sm.5HTRL fold change” value ([2]; agonist hit validation)?
**A.** 95.4625 fold change

**Q.** How did the IC50 [1, 6] turn out when `CC(C)C[C@H]1C(=O)N2CCC[C@H]2[C@]2(O)O[C@](NC(=O)[C@@H]3C=C4c5cccc6[nH]c(Br)c(c56)C[C@H]4N(C)C3)(C(C)C)C(=O)N12` [bromocriptine, Bromocriptine] was run?
**A.** 331 ± 271 nM

**Q.** And the “5-HT (200 µM) stimulation of worm movement after preincubation with antagonist” value ([1]; preincubation 1 µM, Figure 4B)?
**A.** 5-HT stimulation was not observed

**Q.** What about the “type of activity at schistosome 5-HTRs” value [2] of the same molecule?
**A.** antagonists

**Q.** And the IC50 [3]?
**A.** 1600 ± 400 nM

**Q.** And the “percentage of worms in the liver” value [4]?
**A.** 2.0 ± 2.8%

**Q.** With `COc1cc2c(c(OC)c1OC)-c1ccc(OC)c(=O)cc1[C@@H](NC(C)=O)CC2` [compound 757] as the molecule, how does the “Sm.5HTRL agonism (fold change luminescence)” value [2] read?
**A.** 1.502 fold change luminescence

**Q.** What about the “Sm.5HTRL antagonism (% of control 5-HT response)” value [2] of the same molecule?
**A.** 1.228 % of control 5-HT response

**Q.** How did the “(-)Sm.5HTRL fold change” value [5, 7] turn out when `C=C[C@]1(C)C=C2CC[C@@H]3[C@](C)(CCC[C@@]3(C)C(=O)O)[C@H]2CC1` [compound 6435] was run?
**A.** 0.9901 fold change

**Q.** And the “(+) Sm.5HTRL fold change” value ([2]; agonist hit validation)?
**A.** 200.129 fold change

**Q.** What does the source list for `Nc1ncnc2c1ncn2C1OC(CO)C(O)C1O` (stereo not shown) [compound 7652]?
**A.** (-)Sm.5HTRL fold change [5, 7]: 7.802 fold change; (+) Sm.5HTRL fold change ([2]; agonist hit validation): 49.711 fold change

**Q.** With `O=c1ccc2nc3ccc(O)cc3oc-2c1` [compound 12097] as the molecule, how does the “Sm.5HTRL antagonism (% of control 5-HT response)” value [2, 8] read?
**A.** 0.7238 % of control 5-HT response

**Q.** And the fold induction at 10 µM [3]?
**A.** 0.635

**Q.** Which “Sm.5HTRL antagonism (% of control 5-HT response)” value [2, 8] does the source give for `COc1ccc(C2CC(=O)c3c(O)cc(OC4OC(CO)C(O)C(O)C4OC4OC(C)C(O)C(O)C4O)cc3O2)cc1O` (stereo not shown) [compound 31048] here?
**A.** 1.138 % of control 5-HT response

**Q.** And the fold induction at 10 µM [3]?
**A.** 1.32

**Q.** What does the source list for `CCN1C[C@]2(COC)[C@H](O)C[C@H](OC)[C@]34C1[C@H]([C@H](OC)[C@H]23)[C@]1(OC(C)=O)[C@H]2[C@@H](OC(=O)c3ccccc3)[C@](O)(C[C@H]24)[C@@H](OC)[C@@H]1O` [compound 56464]?
**A.** Sm.5HTRL agonism (fold change luminescence) [2]: 1.997 fold change luminescence; Sm.5HTRL antagonism (% of control 5-HT response) [2]: 1.042 % of control 5-HT response

**Q.** For `CNC[C@@H](O)c1ccc(O)c(O)c1` [compound 62786], which “(-)Sm.5HTRL fold change” value [5, 7] is on record?
**A.** 88.8519 fold change

**Q.** And the “(+) Sm.5HTRL fold change” value ([2]; agonist hit validation)?
**A.** 230.23 fold change

**Q.** For `COC(=O)C1=COC(C)C2CN3CCc4c([nH]c5cc(OC)c(OC)cc45)C3CC12.O=C(O)CC(O)(CC(=O)O)C(=O)O` (stereo not shown) [compound 72715], which “(-)Sm.5HTRL fold change” value [5, 7] is on record?
**A.** 0.9445 fold change

**Q.** What about the “(+) Sm.5HTRL fold change” value ([2]; agonist hit validation) of the same molecule?
**A.** 54.6116 fold change

**Q.** For `COc1cc(C)c2c(c1C=O)Oc1c(c(C)c(O)c3c1C(O)OC3=O)OC2=O` (stereo not shown) [compound 87511], which “Sm.5HTRL antagonism (% of control 5-HT response)” value [2, 8] is on record?
**A.** 0.8125 % of control 5-HT response

**Q.** What about the fold induction at 10 µM [3] of the same molecule?
**A.** 0.635

**Q.** `CN1C[C@H](C(=O)N[C@]2(C)O[C@@]3(O)[C@@H]4CCCN4C(=O)[C@H](Cc4ccccc4)N3C2=O)C[C@@H]2c3cccc4[nH]cc(c34)C[C@H]21` [dihydroergotamine, Dihydroergotamine, reference compound] was tested. Which “type of activity at schistosome 5-HTRs” value [2] did it give?
**A.** full agonists

**Q.** Which “type of activity at schistosome 5-HTRs” value [2] does the source give for `CCN(CC)C(=O)N[C@H]1C[C@@H]2c3cccc4[nH]cc(c34)C[C@H]2N(C)C1` [terguride, Terguride, reference compound] here?
**A.** antagonists

**Q.** And the IC50 [3]?
**A.** 400 ± 50 nM

**Q.** `CC(C)C[C@H]1C(=O)N2CCC[C@H]2[C@]2(O)O[C@](NC(=O)[C@@H]3C=C4c5cccc6[nH]cc(c56)C[C@H]4N(C)C3)(C(C)C)C(=O)N12` [α-ergocryptine, reference compound] was tested. Which “type of activity at schistosome 5-HTRs” value [2] did it give?
**A.** inactive
